These are literature values, as cited in publication PMC8284440, “Toward New Transmission-Blocking Combination Therapies: Pharmacokinetics of 10-Amino-Artemisinins and 11-Aza-Artemisinin and Comparison with Dihydroartemisinin and Artemether” (Antimicrobial Agents and Chemotherapy, 2021).

The term Cmax denotes the peak of the concentration-time curve.

One data set deals with P. falciparum TM-C2B. On the set-up: method as in ref 5 (supplement; main text 63). As to conditions: atovaquone and CQ resistant; ref 5 (supplement; main text 63); read-out: Antimalarial activities IC50 TM-C2B; cited from earlier work.
A further data set deals with W2 ring-stage parasites. More on the design: method as in PMID 25288088. As to conditions: not in a concentration-dependent manner; cited from earlier work.
The subject of data set [1] is liver stage P. berghei ANKA GFP-Luc-SMcon sporozoites. More on the design: method as in ref 2 (supplement; main text 48). As to conditions: ref 2 (supplement; main text 48), cited from earlier work; for IC50: 48 h, ± SD.
For data set [2], the system named is P. falciparum NF54. On the set-up: method as in ref 1 and 2 (supplement; main text 47, 48). As to conditions: Table S1, ± SEM; ref 1 and 2 (supplement; main text 47, 48); cited from earlier work.
The subject of data set [3] is P. falciparum W2. On the set-up: method as in ref 1 and 2 (supplement; main text 47, 48). As to conditions: Table S1, ± SEM; ref 1 and 2 (supplement; main text 47, 48); cited from earlier work.
Details of data set [4]: method as in PMID 16444785, PMID 18559649. As to conditions: female rats, cited from earlier work.
Data set [5] concerns CamWTC580Y, Cam3.IIC580Y and Cam3.IIRev strains. On the set-up: method as in PMID 25049252. As to conditions: read-out: mean IC50 across Cambodian strains; cited from earlier work.
The subject of another data set is nonsevere malaria. More on the design: method as in PMID 18559649, PMID 30902052, doi:10.4103/jpp.JPP_23_20. As to conditions: patients with nonsevere malaria; cited from earlier work.
The next data set concerns murine cerebral malaria. On the set-up: method as in PMID 20691118. As to conditions: prescribed low dose levels; cited from earlier work.
For data set [6] the following is noted: in vivo; cited from earlier work.
Data set [7] has as its system P. falciparum W2. More on the design: method as in PMID 25049252. As to conditions: read-out: activity against W2; cited from earlier work.
On the set-up of data set [8]: method as in PMID 16444785. As to conditions: cited from earlier work.
Data set [9] has as its system P. falciparum W2. More on the design: method as in ref 4 (supplement; main text 62). As to conditions: Table S2, ± SEM; ref 4 (supplement; main text 62); read-out: Antimalarial activities IC50 W2; cited from earlier work.
The subject of data set [10] is P. falciparum NF54. On the set-up: method as in ref 4 (supplement; main text 62). As to conditions: Table S2, ± SEM; ref 4 (supplement; main text 62); read-out: Antimalarial activities IC50 NF54; cited from earlier work.
In data set [11] the test system is late stage (IV-V) P. falciparum NF54 gametocytes. More on the design: method as in ref 4 (supplement; main text 62). As to conditions: Table S4, n = 1; ref 4 (supplement; main text 62); read-out: Late stage IC50 (pLDH 72 + 72 h); cited from earlier work.
The next data set has as its system WI-38 HFLF. On the set-up: method as in ref 4 (supplement; main text 62). As to conditions: Table S2; ref 4 (supplement; main text 62); read-out: Cytotoxicities IC50 WI-38 HFLF; cited from earlier work.

Read-outs that look alike come from different tables or passages of the source.

Regarding `C[C@H]1[C@H](N2C=CS(=O)(=O)CC2)O[C@@H]2O[C@@]3(C)CC[C@H]4[C@H](C)CC[C@@H]1[C@@]24OO3` [M1 12], the IC50 in the data set on P. falciparum TM-C2B was 8.6 ± 8.2 nM. For the same compound, the “Induction of quiescence in W2 ring-stage parasites” value with W2 ring-stage parasites was “induce quiescence”.
In the case of `C[C@H]1[C@H](N2CCSCC2)O[C@@H]2O[C@@]3(C)CC[C@H]4[C@H](C)CC[C@@H]1[C@@]24OO3` [Artemiside 5, artemiside], the IC50 in data set [1] is 81.3 nM; in the data set on P. falciparum NF54 [2], 1.11 ± 0.17 nM; in the data set on P. falciparum W2 [3], 1.75 ± 0.27 nM. For the same compound, in [1] (at 5 µM), the Maximum inhibition % is 99.05±1.34%.
`C[C@H]1[C@H](N2CCS(=O)(=O)CC2)O[C@@H]2O[C@@]3(C)CC[C@H]4[C@H](C)CC[C@@H]1[C@@]24OO3` [Artemisone 6, artemisone]: the Cmax in [4] (single oral dose 3 mg/kg) was 35 µg/L; in data set [4] (single oral dose 10 mg/kg), 230 µg/L; in data set [4] (single oral dose 30 mg/kg), 850 µg/L. The values for the elimination half-life in [4] (single oral dose 3 mg/kg), in [4] (single oral dose 10 mg/kg) and in data set [4] (single oral dose 30 mg/kg) were 10.8 min, 22.2 min and 32.4 min, respectively. Moreover, the IC50 in data set [5] is 2.4 nM; in the data set on P. falciparum TM-C2B, 1.1 ± 0.4 nM; in data set [1] it was 28.3 nM; in the data set with P. falciparum NF54 [2] it was 1.2 ± 0.4 nM; with P. falciparum W2 [7] it was 1.9 nM; in the data set with P. falciparum W2 [3], 1.6 ± 0.4 nM. Further, the “Cure in phase IIa trial” value in the data set on nonsevere malaria was “curative at one-third the dose level of artesunate”. For the same compound, in [1] (at 10 µM), the Maximum inhibition % is given as 93.35±1.76%. The “Cure of murine cerebral malaria” value in the data set with murine cerebral malaria was “completely curative”. Moreover, the “artemisone equivalent concentrations at Tmax by bioassay versus LC/MS-MS, fold higher” value in data set [6] was “about 2.3 fold”. Further, the “Induction of quiescence in W2 ring-stage parasites” value with W2 ring-stage parasites is given as “induce quiescence”. Besides, the Neurotoxicity result in data set [8] is “nonneurotoxic”.
As to `CO[C@H]1O[C@@H]2O[C@@]3(C)CC[C@H]4[C@H](C)CC[C@@H]([C@H]1C)[C@@]24OO3` [Artemether 3, artemether], the IC50 is greater than 104 nM in [1], greater than 10000 nM in data set [1] (listed as artemether), 6.7 ± 0.6 nM in the data set on P. falciparum W2 [9] and 1.86 ± 0.17 nM in the data set with P. falciparum NF54 [10]. Besides, the Maximum inhibition % in data set [1] (at 10 µM) is reported as 49.4%.
As for `C[C@H]1[C@H](NS(N)(=O)=O)O[C@@H]2O[C@@]3(C)CC[C@H]4[C@H](C)CC[C@@H]1[C@@]24OO3` [Sulfamide 7], the results for the IC50 with P. falciparum NF54 [2] and with P. falciparum W2 [3] were 3 ± 1 nM and 2.04 ± 0.11 nM, respectively.
Regarding `C[C@@H]1CC[C@H]2[C@@H](C)C(=O)N[C@@H]3O[C@@]4(C)CC[C@@H]1[C@]32OO4` [11-Aza-artemisinin 11, 11-aza-artemisinin], the IC50 was 622 nM in data set [11], greater than 100 µM in the data set on WI-38 HFLF, 6.02 ± 1.81 nM with P. falciparum W2 [9] and 10.5 ± 1.36 nM in the data set on P. falciparum NF54 [10].
Turning to `C[C@H]1[C@@H](O)O[C@@H]2O[C@@]3(C)CC[C@H]4[C@H](C)CC[C@@H]1[C@@]24OO3` [DHA 2, dihydroartemisinin], the IC50 is 11.2 nM in data set [5]; 2 ± 0.7 nM in the data set with P. falciparum TM-C2B; 2.51 ± 0.19 nM with P. falciparum NF54 [2]; 5.2 nM in the data set with P. falciparum W2 [7]; 0.37 ± 0.11 nM in the data set with P. falciparum W2 [9]; 1.74 ± 0.22 nM in the data set on P. falciparum W2 [3]. Further, the IC50 with P. falciparum NF54 [10] is 0.57 ± 0.01 nM. In addition, the “Cure of murine cerebral malaria” value in the data set on murine cerebral malaria is given as “no cure”.
In the case of `C[C@H]1[C@H](N2CCN(C(=O)Nc3ccc(F)cc3)CC2)O[C@@H]2O[C@@]3(C)CC[C@H]4[C@H](C)CC[C@@H]1[C@@]24OO3` [Arylurea 10], the IC50 in [1] is 106 nM; in the data set on P. falciparum NF54 [2] it was 1.3 ± 0.1 nM; in the data set on P. falciparum W2 [3], 1.16 ± 0.17 nM. In addition, the Maximum inhibition % in data set [1] (at 10 µM) was 94.85±2.76%.
